pIC50: −log10 of the molar value. Values after ≈ are worked out from the molar mass of the structure shown. Read-outs that look alike come from different tables or passages of the source.
Legend:
[1] = system: Escherichia coli MC4100 harboring the IMP4213 (E. coli IMP); test: microbe, parasite or virus in culture; type: cell-based; settings: Escherichia coli, 22 h, read-out: MIC (μg/mL) E. coli IMP, E. coli MC4100 IMP4213, increased outer-membrane permeability; 35° C., 22 hours
In short: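 Broth micro-dilution per CLSI in cation-adjusted Mueller Hinton Broth with 0.002% Tween-80; E. coli MC4100 carries IMP4213, raising outer-membrane permeability. Compounds tested as 2-fold serial dilutions (10 concentrations) from 4 μg/mL (protocol 2) or 0.5 μg/mL (protocol 3); inoculum OD600 0.0005, 35° C for 22 hours.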

[2] = target: T1, SpsB (Staphylococcus aureus signal peptidase) (Staphylococcus aureus, UniProt P0A070); test: cell-based; type: biochemical; settings: SpsB IC50, whole-cell S. aureus (USA300 background, overexpressing SpsB) as SpsB source; fluorogenic peptide substrate, kinetic read 30 min
T1 construct: This assay uses a suspension of Staphylococcus aureus cells as a source of SpsB instead of recombinant SpsB protein; endogenous in cells; host or cells: S. aureus, USA300 background, overexpressing SpsB (whole-cell suspension from frozen pellets)
T1 sequence (P0A070 whole entry): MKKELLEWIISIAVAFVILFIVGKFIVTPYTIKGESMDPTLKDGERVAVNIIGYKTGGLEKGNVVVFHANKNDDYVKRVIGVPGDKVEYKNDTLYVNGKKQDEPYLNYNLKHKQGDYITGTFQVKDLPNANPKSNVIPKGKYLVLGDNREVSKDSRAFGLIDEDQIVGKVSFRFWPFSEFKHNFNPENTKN
In short: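 Whole S. aureus cells (USA300, overexpressing SpsB) in PBS with MgCl2, CaCl2 and 0.1% Tween-80 served as enzyme source, mixed with 20 μM stock of (Dabcyl)βAla-KPAKAAE(Edans) substrate before use. Fluorescence (ex 340/em 490 nm) read kinetically over 30 min. IC50 from reaction rate versus 11-point inhibitor concentration.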

[3] = system: Methicillin Resistant Staphylococcus aureus strain USA 300, NRS384; test: Minimum inhibitory concentration, broth micro-dilution (CLSI), S. aureus; type: cell-based; settings: Staphylococcus aureus, MRSA / NRS 384 / USA300, 22 h, 35° C., 22 hours
In short: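 Colonies grown 20 hours at 35° C were suspended in cation-adjusted Mueller Hinton Broth with 0.002% Tween-80. Cells were then added to 2-fold compound dilutions starting at 4 or 0.5 μg/mL, at OD600 0.0005.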

[4] = system: Escherichia coli ATCC 25922; test: Minimum inhibitory concentration, broth micro-dilution (CLSI), E. coli; type: cell-based; settings: Escherichia coli, ATCC25922, 22 h, 35° C., 22 hours
[5] = MRSA USA 300 NRS384, read-out: MIC (μg/mL) S. aureus
[6] = E. coli ATCC 25922, read-out: MIC (μg/mL) E. coli
[7] = read-out: MIC (μg/mL) S. aureus, MRSA USA 300 NRS384
[8] = read-out: MIC (μg/mL) E. coli, E. coli ATCC 25922

Row | Structure (SMILES) | MIC [1] [µg/mL] | pIC50 [2] | MIC [3, 5] [µg/mL] | MIC [4, 6] [µg/mL] | MIC [3, 7] [µg/mL] | MIC [4, 8] [µg/mL]
1 | CCCCCCSc1ccc(C(=O)N[C@@H](CCN)C(=O)N(C)[C@@H]2C(=O)N[C@@H](C)C(=O)N[C@H](C(=O)NCC#N)Cc3ccc(OCCN)c(c3)-c3cc2ccc3OCCN)c(C)c1 [Compound 391] | 0.016 (≈ 0.0183 µM) | 9.00 | 0.047 (≈ 0.0539 µM) | 0.5 (≈ 0.573 µM) | – | –
2 | CCCCCCCCCCN[C@@H](CO)C(=O)N(C)[C@@H]1C(=O)N[C@@H](C)C(=O)N[C@H](C(=O)NCC#N)Cc2ccc(OCCN)c(c2)-c2cc1ccc2OCCN [Compound 400] | 2 (≈ 2.61 µM) | 8.30 | – | – | 0.25 (≈ 0.327 µM) | > 64
3 | CCCCCCCCCCCNC(=O)N[C@@H](CCN)C(=O)N(C)[C@@H]1C(=O)N[C@@H](C)C(=O)N[C@H](C(=O)NCC#N)Cc2ccc(OCCN)c(c2)-c2cc1ccc2OCCN [Compound 403] | 0.023 (≈ 0.0275 µM) | > 9.30 | 0.029 (≈ 0.0347 µM) | 1.3 (≈ 1.56 µM) | – | –
4 | CCCCCCc1ccc(NC(=O)N[C@@H](CCN)C(=O)N(C)[C@@H]2C(=O)N[C@@H](C)C(=O)N[C@H](C(=O)NCC#N)Cc3ccc(OCCN)c(c3)-c3cc2ccc3OCCN)c(C)c1 [Compound 404] | 0.047 (≈ 0.055 µM) | 9.06 | – | – | 0.063 (≈ 0.0737 µM) | 2 (≈ 2.34 µM)
5 | CCCCCCCCCCC(C)(C)C(=O)N[C@@H](CCN)C(=O)N(C)[C@@H]1C(=O)N[C@@H](C)C(=O)N[C@H](C(=O)NCC#N)Cc2ccc(OCCN)c(c2)-c2cc1ccc2OCCN [Compound 406] | 0.031 (≈ 0.0366 µM) | 8.92 | 0.063 (≈ 0.0743 µM) | 2 (≈ 2.36 µM) | – | –
6 | CCCCCCCCc1ccc(C(=O)N[C@@H](CCN)C(=O)N(C)[C@@H]2C(=O)N[C@@H](C)C(=O)N[C@H](C(=O)NCC#N)Cc3ccc(OCCN)c(c3)-c3cc2ccc3OCCN)c(OCC(N)=O)c1 [Compound 407] | 0.047 (≈ 0.0507 µM) | 8.96 | 0.047 (≈ 0.0507 µM) | 4 (≈ 4.31 µM) | – | –
7 | CCCCCCCC(F)(F)c1ccc(C(=O)N[C@@H](CCN)C(=O)N(C)[C@@H]2C(=O)N[C@@H](C)C(=O)N[C@H](C(=O)NCC#N)Cc3ccc(OCCN)c(c3)-c3cc2ccc3OCCN)c(Cl)c1 [Compound 412] | 0.012 (≈ 0.013 µM) | 9.22 | – | – | 0.031 (≈ 0.0335 µM) | 0.13 (≈ 0.141 µM)
8 | CCCCCCCC(=O)c1ccc(C(=O)N[C@@H](CCN)C(=O)N(C)[C@@H]2C(=O)N[C@@H](C)C(=O)N[C@H](C(=O)NCC#N)Cc3ccc(OCCN)c(c3)-c3cc2ccc3OCCN)c(Cl)c1 [Compound 413] | 0.0078 (≈ 0.00864 µM) | 9.06 | 0.031 (≈ 0.0343 µM) | 0.25 (≈ 0.277 µM) | – | –
9 | CCCCCCCCCCNCCC(=O)N[C@@H](CCCCN)C(=O)N(C)[C@@H]1C(=O)N[C@@H](C)C(=O)N[C@H](C(=O)NC(C)C#N)Cc2ccc(OCCN)c(c2)-c2cc1ccc2OCCN (stereo partly drawn) [Compound 415] | 4 (≈ 4.49 µM) | 7.85 | – | – | > 4 | 64 (≈ 71.8 µM)
10 | CCCCCCCCCCCC(=O)N[C@@H](CO)C(=O)N(C)[C@@H]1C(=O)N[C@@H](C)C(=O)N[C@H](C(=O)N[C@H](C#N)C2CC2)Cc2ccc(OCCN)c(c2)-c2cc1ccc2OCCN [Compound 420] | 1 (≈ 1.18 µM) | 8.08 | 4 (≈ 4.72 µM) | 24 (≈ 28.3 µM) | – | –
11 | CCCCCCCCc1cccc(C(=O)N[C@@H](CCCCN)C(=O)N(C)[C@@H]2C(=O)N[C@@H](C)C(=O)N[C@H](C(=O)NCC#N)Cc3ccc(OCCN)c(c3)-c3cc2ccc3OCCN)c1 [Compound 421] | 0.063 (≈ 0.0714 µM) | 8.80 | 0.063 (≈ 0.0714 µM) | 2 (≈ 2.27 µM) | – | –
12 | CCCCCCCCc1ccc(C)c(C(=O)N[C@@H](CCCCN)C(=O)N(C)[C@@H]2C(=O)N[C@@H](C)C(=O)N[C@H](C(=O)NCC#N)Cc3ccc(OCCN)c(c3)-c3cc2ccc3OCCN)c1 [Compound 422] | 0.031 (≈ 0.0346 µM) | 8.96 | 0.063 (≈ 0.0703 µM) | 1.5 (≈ 1.67 µM) | – | –
13 | C[C@@H]1NC(=O)[C@@H](N(C)C(=O)[C@H](CCN)NC(=O)c2ccc(C#Cc3ccccc3)cc2F)c2ccc(OCCN)c(c2)-c2cc(ccc2OCCN)C[C@@H](C(=O)NCC#N)NC1=O [Compound 423] | 0.014 (≈ 0.0163 µM) | 9.07 | – | – | 0.063 (≈ 0.0733 µM) | 0.44 (≈ 0.512 µM)
14 | C[C@@H]1NC(=O)[C@@H](N(C)C(=O)[C@H](CCN)NC(=O)c2ccc(C#Cc3ccccc3)cc2Cl)c2ccc(OCCN)c(c2)-c2cc(ccc2OCCN)C[C@@H](C(=O)NCC#N)NC1=O [Compound 424] | 0.016 (≈ 0.0183 µM) | 9.12 | – | – | 0.063 (≈ 0.0719 µM) | 0.56 (≈ 0.639 µM)
15 | Cc1cc(C#Cc2ccccc2)ccc1C(=O)N[C@@H](CCN)C(=O)N(C)[C@@H]1C(=O)N[C@@H](C)C(=O)N[C@H](C(=O)NCC#N)Cc2ccc(OCCN)c(c2)-c2cc1ccc2OCCN [Compound 425] | 0.018 (≈ 0.021 µM) | 8.96 | 0.047 (≈ 0.0549 µM) | 0.63 (≈ 0.736 µM) | – | –
16 | CCCCC1CCC(C2CCC(C(=O)N[C@@H](CCN)C(=O)N(C)[C@@H]3C(=O)N[C@@H](C)C(=O)N[C@H](C(=O)NCC#N)Cc4ccc(OCCN)c(c4)-c4cc3ccc4OCCN)CC2)CC1 (stereo partly drawn) [Compound 426] | < 0.0039 | 8.92 | 0.063 (≈ 0.0711 µM) | 0.19 (≈ 0.214 µM) | – | –
17 | C[C@@H]1NC(=O)[C@@H](N(C)C(=O)[C@H](CCN)NC(=O)/C=C/c2ccc(-c3ccc(Cl)cc3)cc2)c2ccc(OCCN)c(c2)-c2cc(ccc2OCCN)C[C@@H](C(=O)NCC#N)NC1=O [Compound 427] | 0.047 (≈ 0.0535 µM) | 8.92 | – | – | 0.063 (≈ 0.0717 µM) | 1 (≈ 1.14 µM)
18 | CCCCc1ccc(/C=C/C(=O)N[C@@H](CCN)C(=O)N(C)[C@@H]2C(=O)N[C@@H](C)C(=O)N[C@H](C(=O)NCC#N)Cc3ccc(OCCN)c(c3)-c3cc2ccc3OCCN)cc1 [Compound 428] | 0.023 (≈ 0.0279 µM) | 8.92 | 0.094 (≈ 0.114 µM) | 1 (≈ 1.21 µM) | – | –
19 | Cc1cc(/C=C/c2ccccc2)ccc1C(=O)N[C@@H](CCN)C(=O)N(C)[C@@H]1C(=O)N[C@@H](C)C(=O)N[C@H](C(=O)NCC#N)Cc2ccc(OCCN)c(c2)-c2cc1ccc2OCCN [Compound 429] | 0.0078 (≈ 0.00909 µM) | 9.09 | 0.063 (≈ 0.0734 µM) | 0.75 (≈ 0.874 µM) | – | –
20 | Cc1cc(C2CCCCC2)ccc1C(=O)N[C@@H](CCN)C(=O)N(C)[C@@H]1C(=O)N[C@@H](C)C(=O)N[C@H](C(=O)NCC#N)Cc2ccc(OCCN)c(c2)-c2cc1ccc2OCCN [Compound 431] | 0.023 (≈ 0.0274 µM) | 9.11 | 0.063 (≈ 0.0752 µM) | 0.88 (≈ 1.05 µM) | – | –
21 | C[C@@H]1NC(=O)[C@@H](N(C)C(=O)[C@H](CCN)NC(=O)c2ccc(-c3ccc(C4CCCCC4)cc3)cc2)c2ccc(OCCN)c(c2)-c2cc(ccc2OCCN)C[C@@H](C(=O)NCC#N)NC1=O [Compound 432] | 0.016 (≈ 0.0178 µM) | 8.85 | – | – | 0.094 (≈ 0.104 µM) | 0.13 (≈ 0.144 µM)
22 | CCC(C)c1ccc(C(=O)N[C@@H](CCN)C(=O)N(C)[C@@H]2C(=O)N[C@@H](C)C(=O)N[C@H](C(=O)NCC#N)Cc3ccc(OCCN)c(c3)-c3cc2ccc3OCCN)c(C)c1 (stereo partly drawn) [Compound 434] | 0.047 (≈ 0.0579 µM) | 8.82 | 0.25 (≈ 0.308 µM) | 2 (≈ 2.46 µM) | – | –
23 | Cc1cc(C2CCCCCC2)ccc1C(=O)N[C@@H](CCN)C(=O)N(C)[C@@H]1C(=O)N[C@@H](C)C(=O)N[C@H](C(=O)NCC#N)Cc2ccc(OCCN)c(c2)-c2cc1ccc2OCCN [Compound 436] | 0.0078 (≈ 0.00915 µM) | 9.11 | 0.047 (≈ 0.0552 µM) | 0.38 (≈ 0.446 µM) | – | –
24 | CCCCCCCc1cc(F)c(C(=O)N[C@@H](CCN)C(=O)N(C)[C@@H]2C(=O)N[C@@H](C)C(=O)N[C@H](C(=O)NCC#N)Cc3ccc(OCCN)c(c3)-c3cc2ccc3OCCN)c(Cl)c1 [Compound 437] | 0.0078 (≈ 0.00874 µM) | 9.05 | 0.063 (≈ 0.0706 µM) | 0.25 (≈ 0.28 µM) | – | –

From patent US20180327367A1, “MACROCYCLIC BROAD SPECTRUM ANTIBIOTICS” (priority 2015, published 2018)
